Where only a bound is given, the exact number is not on record here.

For this data set, the system named is ddY-strain male mice. In words: Acute Toxicity Test (minimum lethal dose, oral). In kind it is in vivo. Particulars: seven days after administration. Here is the method:
Test compounds were orally administered to groups of ddY-strain male mice weighing 20±1 g, each group consisting of three mice. Seven days after the administration, minimum lethal dose (MLD) of each compound was determined by observing the mortality.

On to `CCCn1c(=O)c2c(nc(/C=C/c3ccc(OCOC)c(OCOC)c3)n2C)n(CCC)c1=O` [Compound 68, (E)-8-[3,4-Bis(methoxymethoxy)styryl]-7-methyl-1,3-dipropylxanthine], for which the “MLD (minimum lethal dose)” value was above 100 mg/kg. To `C=CCn1c(=O)c2[nH]c(/C=C/c3ccc(OC)c(OC)c3)nc2n(CC=C)c1=O` [Compound 69, (E)-1,3-Diallyl-8-(3,4-dimethoxystyryl)xanthine] belongs above 100 mg/kg; to `CCCn1c(=O)c2[nH]c(/C=C/c3ccc(OC)c(OC)c3)nc2n(CCC)c1=S` [Compound 71, (E)-8-(3,4-Dimethoxystyryl)-1,3-dipropyl-2-thioxanthine], above 100 mg/kg.

In the case of `CCCn1c(=O)c2c(nc(/C=C/c3ccc(OC)c(OC)c3)n2C)n(CCC)c1=S` [Compound 72, (E)-8-(3,4-Dimethoxystyryl)-7-methyl-1,3-dipropyl-2-thioxanthine], the “MLD (minimum lethal dose)” value is on record as above 300 mg/kg. To `CCn1c(=O)c2[nH]c(/C=C/c3ccc(OC)c(OC)c3)nc2n(CC)c1=O` [Compound 73, (E)-8-(3,4-Dimethoxystyryl)-1,3-diethylxanthine] belongs above 300 mg/kg.

With `CCn1c(=O)c2[nH]c(/C=C/c3cccc(OC)c3OC)nc2n(CC)c1=O` [Compound 75, (E)-8-(2,3-Dimethoxystyryl)-1,3-diethylxanthine], the “MLD (minimum lethal dose)” value is above 300 mg/kg. For `CCn1c(=O)c2c(nc(/C=C/c3cccc(OC)c3OC)n2C)n(CC)c1=O` [Compound 76, (E)-8-(2,3-Dimethoxystyryl)-1,3-diethyl-7-methylxanthine], the “MLD (minimum lethal dose)” value was above 300 mg/kg. To `CCn1c(=O)c2[nH]c(/C=C/c3ccc(OC)cc3OC)nc2n(CC)c1=O` [Compound 77, (E)-8-(2,4-Dimethoxystyryl)-1,3-diethylxanthine] belongs above 100 mg/kg; to `CCn1c(=O)c2[nH]c(/C=C/c3ccc(OC)c(OC)c3OC)nc2n(CC)c1=O` [Compound 79, (E)-1,3-Diethyl-8-(2,3,4-trimethoxystyryl)xanthine], above 300 mg/kg; to `CCn1c(=O)c2[nH]c(/C=C/c3ccc(OC)c(C)c3C)nc2n(CC)c1=O` [Compound 81, (E)-1,3-Diethyl-8-(4-methoxy-2,3-dimethylstyryl)xanthine], above 300 mg/kg. The figure for `CCn1c(=O)c2[nH]c(/C=C/c3cc(C)c(OC)cc3C)nc2n(CC)c1=O` [Compound 83, (E)-1,3-Diethyl-8-(4-methoxy-2,5-dimethylstyryl)xanthine] is above 300 mg/kg; for `CCn1c(=O)c2c(nc(/C=C/c3cc(C)c(OC)cc3C)n2C)n(CC)c1=O` [Compound 84, (E)-1,3-Diethyl-8-(4-methoxy-2,5-dimethylstyryl)-7-methylxanthine] it is above 300 mg/kg; for `CCn1c(=O)c2[nH]c(/C=C/c3ccc(OC)c(C)c3OC)nc2n(CC)c1=O` [Compound 85, (E)-8-(2,4-Dimethoxy-3-methylstyryl)-1,3-diethylxanthine] it is above 300 mg/kg. For the molecule `CCn1c(=O)c2c(nc(/C=C/c3ccc(OC)c(C)c3OC)n2C)n(CC)c1=O` [Compound 86, (E)-8-(2,4-Dimethoxy-3-methylstyryl)-1,3-diethyl-7-methylxanthine], the “MLD (minimum lethal dose)” value is given as above 300 mg/kg. In the case of `CCn1c(=O)c2[nH]c(/C=C/c3ccc4c(c3)OCO4)nc2n(CC)c1=O` [Compound 87, (E)-1,3-Diethyl-8-(3,4-methylenedioxystyryl)xanthine], the “MLD (minimum lethal dose)” value is above 300 mg/kg. To `CCn1c(=O)c2c(nc(/C=C/c3ccc4c(c3)OCO4)n2C)n(CC)c1=O` [Compound 88, (E)-1,3-Diethyl-7-methyl-8-(3,4-methylenedioxystyryl)xanthine] belongs above 300 mg/kg.

On to `CCn1c(=O)c2[nH]c(/C=C/c3ccc4c(c3)OCCO4)nc2n(CC)c1=O` [Compound 89, (E)-8-[2-(1,4-Benzodioxan-6-yl)vinyl]-1,3-diethylxanthine], for which the “MLD (minimum lethal dose)” value is above 100 mg/kg. As to `CCn1c(=O)c2c(nc(/C=C/c3ccc4c(c3)OCCO4)n2C)n(CC)c1=O` [Compound 90, (E)-8-[2-(1,4-Benzodioxan-6-yl)vinyl]-1,3-diethyl-7-methylxanthine], the “MLD (minimum lethal dose)” value is given as above 300 mg/kg. On to `COc1ccc(/C=C/c2nc3c(=O)n(C)c(=O)n(C)c3[nH]2)c(OC)c1OC` [Compound 91, (E)-8-(2,3,4-Trimethoxystyryl)theophylline], for which the “MLD (minimum lethal dose)” value was above 300 mg/kg.

With `COc1ccc(/C=C/c2nc3c(c(=O)n(C)c(=O)n3C)n2C)c(OC)c1OC` [Compound 92, (E)-8-(2,3,4-Trimethoxystyryl)caffeine], the “MLD (minimum lethal dose)” value was above 300 mg/kg. With `COc1ccc(/C=C/c2nc3c([nH]2)c(=O)n(C)c(=O)n3C)c(C)c1C` [Compound 93, (E)-8-(4-Methoxy-2,3-dimethylstyryl)theophylline], the “MLD (minimum lethal dose)” value was above 100 mg/kg. Regarding `COc1ccc(/C=C/c2nc3c(c(=O)n(C)c(=O)n3C)n2C)c(C)c1C` [Compound 94, (E)-8-(4-Methoxy-2,3-dimethylstyryl)caffeine], the “MLD (minimum lethal dose)” value was above 100 mg/kg. On to `Cn1c(=O)c2[nH]c(/C=C/c3ccc4c(c3)OCO4)nc2n(C)c1=O` [Compound 95, (E)-8-(3,4-Methylenedioxystyryl)theophylline], for which the “MLD (minimum lethal dose)” value is above 300 mg/kg. On to `Cn1c(=O)c2c(nc(/C=C/c3ccc4c(c3)OCO4)n2C)n(C)c1=O` [Compound 96, (E)-8-(3,4-Methylenedioxystyryl)caffeine], for which the “MLD (minimum lethal dose)” value is on record as above 300 mg/kg. To `COc1cccc(/C=C/c2nc3c(=O)n(C)c(=O)n(C)c3[nH]2)c1OC` [Compound 97, (E)-8-(2,3-Dimethoxystyryl)theophylline] belongs above 100 mg/kg; to `COc1cccc(/C=C/c2nc3c(c(=O)n(C)c(=O)n3C)n2C)c1OC` [Compound 98, (E)-8-(2,3-Dimethoxystyryl)caffeine], above 300 mg/kg.

Consider `COc1ccc(/C=C/c2nc3c([nH]2)c(=O)n(C)c(=O)n3C)c(OC)c1` [Compound 99, (E)-8-(2,4-Dimethoxystyryl)theophylline], for which the “MLD (minimum lethal dose)” value was above 100 mg/kg. For the molecule `COc1ccc(/C=C/c2nc3c(c(=O)n(C)c(=O)n3C)n2C)c(OC)c1` [Compound 100, (E)-8-(2,4-Dimethoxystyryl)caffeine], the “MLD (minimum lethal dose)” value is on record as above 300 mg/kg. Consider `COc1cc(C)c(/C=C/c2nc3c([nH]2)c(=O)n(C)c(=O)n3C)cc1C` [Compound 101, (E)-8-(4-Methoxy-2,5-dimethylstyryl)theophylline], for which the “MLD (minimum lethal dose)” value is listed as above 100 mg/kg.

On to `COc1cc(C)c(/C=C/c2nc3c(c(=O)n(C)c(=O)n3C)n2C)cc1C` [Compound 102, (E)-8-(4-Methoxy-2,5-dimethylstyryl)caffeine], for which the “MLD (minimum lethal dose)” value was above 100 mg/kg. To `COc1ccc(/C=C/c2nc3c([nH]2)c(=O)n(C)c(=O)n3C)c(OC)c1C` [Compound 103, (E)-8-(2,4-Dimethoxy-3-methylstyryl)theophylline] belongs above 100 mg/kg; to `COc1ccc(/C=C/c2nc3c(c(=O)n(C)c(=O)n3C)n2C)c(OC)c1C` [Compound 104, (E)-8-(2,4-Dimethoxy-3-methylstyryl)caffeine], above 100 mg/kg; to `CCn1c(=O)c2[nH]c(/C=C/c3ccc(OC)c(OC)c3Cl)nc2n(CC)c1=O` [Compound 105, (E)-8-(2-Chloro-3,4-dimethoxystyryl)-1,3-diethylxanthine], above 100 mg/kg. Take `CCn1c(=O)c2c(nc(/C=C/c3ccc(OC)c(OC)c3Cl)n2C)n(CC)c1=O` [Compound 106, (E)-8-(2-Chloro-3,4-dimethoxystyryl)-1,3-diethyl-7-methylxanthine]: the “MLD (minimum lethal dose)” value is given as above 300 mg/kg. The figure for `COc1ccc(/C=C/c2nc3c([nH]2)c(=O)n(C)c(=O)n3C)c(Cl)c1OC` [Compound 107, (E)-8-(2-Chloro-3,4-dimethoxystyryl)theophylline] is above 100 mg/kg; for `COc1ccc(/C=C/c2nc3c(c(=O)n(C)c(=O)n3C)n2C)c(Cl)c1OC` [Compound 108, (E)-8-(2-Chloro-3,4-dimethoxystyryl)caffeine] it is above 300 mg/kg; for `CCn1c(=O)c2[nH]c(/C=C/c3cc(C)ccc3C)nc2n(CC)c1=O` [Compound 109, (E)-8-(2,5-Dimethylstyryl)-1,3-diethylxanthine] it is above 300 mg/kg. To `CCn1c(=O)c2c(nc(/C=C/c3cc(C)ccc3C)n2C)n(CC)c1=O` [Compound 110, (E)-8-(2,5-Dimethylstyryl)-1,3-diethyl-7-methylxanthine] belongs above 300 mg/kg; to `CCn1c(=O)c2[nH]c(/C=C/c3ccc(F)c(F)c3)nc2n(CC)c1=O` [Compound 111, (E)-8-(3,4-Difluorostyryl)-1,3-diethylxanthine], above 300 mg/kg. On to `CCn1c(=O)c2c(nc(/C=C/c3ccc(F)c(F)c3)n2C)n(CC)c1=O` [Compound 112, (E)-8-(3,4-Difluorostyryl)-1,3-diethyl-7-methylxanthine], for which the “MLD (minimum lethal dose)” value is listed as above 300 mg/kg. The figure for `CCn1c(=O)c2[nH]c(/C=C/c3ccc(OC)c(Br)c3)nc2n(CC)c1=O` [Compound 113, (E)-8-(3-Bromo-4-methoxystyryl)-1,3-diethylxanthine] is above 100 mg/kg. The figure for `COc1ccc(/C=C/c2nc3c([nH]2)c(=O)n(C)c(=O)n3C)cc1Br` [Compound 115, (E)-8-(3-Bromo-4-methoxystyryl)theophylline] is above 100 mg/kg; for `COc1ccc(/C=C/c2nc3c(c(=O)n(C)c(=O)n3C)n2C)cc1Br` [Compound 116, (E)-8-(3-Bromo-4-methoxystyryl)caffeine] it is above 300 mg/kg.

For the molecule `CCn1c(=O)c2[nH]c(/C=C/c3cc(OC)c(OC)cc3Br)nc2n(CC)c1=O` [Compound 117, (E)-8-(2-Bromo-4,5-dimethoxystyryl)-1,3-diethylxanthine], the “MLD (minimum lethal dose)” value is above 100 mg/kg.

Values taken from patent US5543415A, “Antidepressants” (Kyowa Hakko Kogyo Co., Ltd., priority 1992, dated 1996).
